Assay results published in patent publication US20100105766A1, “COMPOSITION FOR INHIBITION OR PREVENTION OF BONE DENSITY REDUCTION” (Kirin Beer Kabushiki Kaisha, priority 2003, published 2010).
Entries after “also recorded” stand apart in the source; their conditions may differ.

Tests used:
[1] = test system: estrogen-responsive human breast cancer-derived MCF-7 cells; assay: Estrogen activity measured by cell growth of MCF-7 cells (Cell Counting Kit); type: cell-based; conditions: for estrogen activity compared with the activity of estradiol: MCF-7 cell growth, relative to 17β-estradiol; for estrogen activity (cell growth of MCF-7 cells as index): 7 days of culture, absorbance at 450 nm
Protocol: The estrogen activity of the test compound was measured using as an index cell growth of estrogen-responsive human breast cancer-derived MCF-7 cells. The cell line used is one that expressed an estrogen receptor and enhanced cell growth in the presence of an estrogen-like substance. Therefore, the estrogen activity was measured by measuring the cell growth of the cell line with Cell Counting Kit (manufactured by DOJINDO LABORATORIES).
The measurement of cell growth of MCF-7 cells with the Cell Counting Kit was carried out by measuring the absorbance at 450 nm of formazane produced from a WST-1 reagent ([…], monosodium salt) incorporated in cells with a microplate reader (SOFTmax (manufactured by Molecular Devices Corporation)).
More specifically, MCF-7 cells were precultured for 3 days in a DMEM medium containing 10% of fetal calf serum (manufactured by Gibco), which had been treated using Dextran-Coated Charcoal (manufactured by Sigma) for adsorbing and removing endogenous steroids, and further containing penicillin and streptomycin (each 10000 units, 1 mg/ml, manufactured by Gibco), 0.1 mM nonessential amino acid (manufactured by Gibco), 1 mM sodium pyruvate (manufactured by Gibco), and 1 μg/ml insulin (human recombinant 27.5 USP unit/mg: (manufactured by Sigma)). A cell suspension having an MCF-7 cell concentration of 8×10^4 cells/ml was prepared and was seeded on a 96 well plate in an amount of 100 μl/well. One day after the initiation of the culture, the medium in the wells was replaced by a medium containing a test compound (0.1% (v/v)) dissolved in dimethylsulfoxide, and culture was continued. On the fourth day of the culture, the medium in the wells was again replaced by a fresh medium containing the test compound. On the seventh day of the culture, the cell growth was measured with Cell Counting Kit.
For purified isoxanthohumol and chemically synthesized 8-prenylnaringenin, the estrogen activity was measured in the same manner as in test 1, except that the concentrations of the test compound in the medium for MCF-7 cell culture were set as follows.
Isoxanthohumol was added so that the concentration of isoxanthohumol in the medium was 1.0×10^−5, 1.0×10^−6, 1.0×10^−7, 1.0×10^−8, 1.0×10^−9, and 1.0×10^−10 mol/L.

[2] = test system: ovariectomized female SD rats; assay: Amelioration of bone mineral density reduction after removal of ovaries (pQCT, femur), test 4; type: in vivo, rat; conditions: oral 10 ml/kg once a day for 28 days, concentrations equal to those in beer (isoxanthohumol also 5-fold and 20-fold)
Protocol: Ovaries on both sides of 9-week old female SD rats were removed, and, from the next day of the ovary removal, the test compound was orally administered into the stomach through a stomach tube (liquid amount 10 ml/kg) once a day for 28 days.
(§1) For the control group and sham operation group, the 0.8% aqueous ethanol solution was orally administered in the same manner as in the test compound administration group. 17β-Estradiol was provided as a positive control and was subcutaneously administered at a dose of 4 μg/kg/day.
Beer (domestically produced pilsner beer) contained 2.1 mg/L isoxanthohumol and 43 μg/L 8-prenylnaringenin. Here this beer was once lyophilized and was then dissolved in water to remove ethanol to give a test compound which was then used in the test.
Isoxanthohumol was dissolved in a 0.8% aqueous ethanol solution so that, as compared with the concentration of isoxanthohumol contained in beer, the resultant solutions had 1-fold, 5-fold and 20-fold isoxanthohumol concentrations. […]
The bone mineral density was measured by dissecting the femur of rats and identifying the cancellous bone mineral density at the distal metaphysis bone end with a pQCT (Peripheral Quantitative computed tomography) bone mineral density measuring apparatus (XCT-960A, manufactured by Norland Stratec).

bone resorption = conditions: in vitro experiment, reported in the literature; cited from earlier work
[3] = test system: ovariectomized female SD rats; assay: In vivo estrogen activity in ovariectomized rats (uterine weight), test 3-b; design: species or system rat
Protocol: Ovaries on both sides of 9-week old female SD rats (available from Charles River Japan, Inc.) were removed, and the rats were randomly grouped so that each group consisted of 6 animals. The animals were reared with free feeding of water and AlN-76A (manufactured by CLEA JAPAN INC.). From the next day of the operation, the test compound was forcibly orally administered into the stomach through a stomach tube (liquid amount 10 ml/kg) once a day for 28 days.
as §1, with “Isoxanthohumol was dissolved in a 0.8% aqueous ethanol solution so that, as compared with the concentration of isoxanthohumol contained in beer, the resultant solutions had 1-fold, 5-fold and 20-fold isoxanthohumol concentrations. For” for “For”, “2” for “4”

young Wistar female rats = assay: In vivo estrogen activity in immature rats (uterine weight), test 3-a; design: species or system rat; conditions: oral 1, 5 or 25 mg/kg/day once a day for 3 days
Protocol: In vivo estrogen activity was evaluated using young Wistar female rats. The rats used were provided as follows. At the outset, 20-day old Wistar female rats (available from Charles River Japan, Inc.) were selected so that the difference in body weight among the animals was within ±10% of the average body weight. Thereafter, the animals were randomly grouped so that each group consisted of 6 animals. The animals were reared with free feeding of water and AlN-76A (manufactured by CLEA JAPAN INC.).
After preliminary rearing for one day, isoxanthohumol or 8-prenylnaringenin was forcibly orally administered into the stomach through a stomach tube at a dose of 1, 5, or 25 mg/kg/day (liquid amount 10 ml/kg) once a day for 3 days. For the control group, a solvent (peanut oil) was orally administered in the same manner as described, and for the positive control, 17β-estradiol was provided and was orally administered at a dose of 400 μg/kg/day in the same manner as described above. About 24 hr after the final administration, the uterine was harvested from the rats, and the weight of the uterine was measured to measure the in vivo estrogen activity.

dose without uterine weight increasing activity relative to the dose that exhibited bone mineral density reduction inhibitory activity [3] [times] | Compound | estrogen activity compared with the activity of estradiol [1] | estrogen activity (cell growth of MCF-7 cells as index) [1] | amelioration of cancellous bone mineral density reduction in the femur [2] | bone resorption inhibitory effect (bone resorption) | in vivo estrogen activity (recovery of uterine weight) ([3]; oral 10 ml/kg once a day for 28 days, 1-fold, 5-fold and 20-fold the concentration in beer) | in vivo estrogen activity (uterine weight increasing activity) (young Wistar female rats)
 | CC(C)=CCc1c(O)cc(O)c2c1O[C@H](c1ccc(O)cc1)CC2=O [8-prenylnaringenin, reference compound] | 10^−2 time | had estrogen activity | This amelioration was not observed |  |  | 
 | COc1cc(O)c(CC=C(C)C)c(O)c1C(=O)/C=C/c1ccc(O)cc1 [xanthohumol, reference compound] |  |  | any activity as in isoxanthohumol was not observed | proven to have bone resorption inhibitory effect |  | 
 | Humulons |  |  |  | proven to have bone resorption inhibitory effect |  | 
20 | COc1cc(O)c(CC=C(C)C)c2c1C(=O)CC(c1ccc(O)cc1)O2 (stereo not drawn) [isoxanthohumol] | about 10^−5 time | had estrogen activity; also recorded: has estrogen activity | confirmed to be effective; also recorded: better than the effect of xanthohumol; also recorded: significantly ameliorated; also recorded: significantly improved a bone mineral density reduction |  | significant recovery of the weight of the uterine was not observed; also recorded: did not exhibit uterine weight increasing activity | did not have in vivo estrogen activity for immature rats or had only a very low level of activity; also recorded: did not exhibit uterine weight increasing activity; also recorded: uterine hypertrophy action was not observed
